Measured values from patent publication US10519193B2, “Steroidal compound, composition containing the same and use thereof” (Shenzhen TargetRx, Inc., priority 2016, dated 2019).

Columns and labels:
[1] = test system: PSA protein secretion, LNcaP cells; test: Inhibition of cellular PSA protein secretion; format: cell-based; details: Homo sapiens, 1 nM DHT, 48 hours, ELISA, read-out: Inhibition of PSA proteins, IC50
Experimental: Experimental steps: 1. The original culture medium was replaced with culture medium containing 10% Charcoal Stripped FBS, and cells were allowed to starve in culture flasks for 24 hours; 2. Cells were digested and counted, and LNcaP cells were seeded into 96-well plates at 10,000 cells/well and incubated overnight; 3. The DHT and compound were added to the existing medium at a set concentration, the final concentration of DHT was 1 nM, the initial concentration of the compound was 50000 nM, 5-fold dilution was carried out, 8 concentration gradients were obtained, and incubation was carried out for 48 hours; 4. Cell culture supernatants were collected and PSA protein levels were measured according to the ELISA kit instructions. IC50 was calculated using GraphPad Prism based on the inhibition rate at each concentration, and the results were shown in Table 2 below.

[2] = molecular target: T1, Human CYP17 (Homo sapiens, UniProt P05093); test: CYP17 lyase assay; format: biochemical; parameters: made in house; host or cells: HEK293 cells (microsomes); details: CYP17-HEK293 microsomes, 20 minutes at room temperature; read-out: CYP17 lyase IC50
T1 sequence (P05093 1-508): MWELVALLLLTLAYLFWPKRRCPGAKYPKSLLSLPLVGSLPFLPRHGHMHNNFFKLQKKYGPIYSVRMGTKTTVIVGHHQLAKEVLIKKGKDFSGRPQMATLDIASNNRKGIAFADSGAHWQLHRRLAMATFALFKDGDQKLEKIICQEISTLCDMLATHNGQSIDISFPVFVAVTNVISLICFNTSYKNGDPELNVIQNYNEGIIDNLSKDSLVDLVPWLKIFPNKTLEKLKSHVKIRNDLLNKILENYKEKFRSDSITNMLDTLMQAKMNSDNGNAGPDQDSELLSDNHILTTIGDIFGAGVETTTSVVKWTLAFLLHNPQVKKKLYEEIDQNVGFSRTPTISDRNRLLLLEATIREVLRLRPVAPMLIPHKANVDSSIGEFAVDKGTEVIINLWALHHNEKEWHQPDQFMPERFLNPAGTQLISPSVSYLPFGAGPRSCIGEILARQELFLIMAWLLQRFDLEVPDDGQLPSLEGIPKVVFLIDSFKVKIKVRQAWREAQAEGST
Experimental: Human CYP17 was expressed in HEK293 cells and microsome were prepared, which was subsequently used as a source of enzyme for lyase assays. The reaction includes 200 nM [3H]-hydroxy pregnenolone (ARC), 200 nM 17-hydroxy pregnenolone (Sigma), 2 mM NADPH (Calbiochem), and CYP 17-HEK293 microsomes, which were incubated for 20 minutes at room temperature in the presence of DMSO or a test compound. Compounds were dissolved in DMSO and serially diluted. The reaction was stopped by the addition of 0.2N HCl and the product was captured using an anti-mouse YSi SPA Bead (GE) conjugated anti-DHEA monoclonal antibody (Abcam). The signal intensity determined by Packard Top Count was used to calculate the percent inhibition and IC50 values.

[3] = molecular target: T1, Human CYP17; test: CYP17 hydroxylase assay; format: biochemical; parameters: made in house; host or cells: E. coli (membrane preparation); details: hCYP17 E. coli membrane, 25 μM pregnenolone, 37° C. 120 minutes; read-out: CYP17 hydroxylase IC50
Experimental: E. coli was transformed to express active human CYP17, and a membrane prepared from the transformed E. coli was used as a source of the enzyme. […] The reaction mixture was incubated at 37° C. for 120 minutes and 200 μL of 0.02 N HCl in acetonitrile was added to stop the reaction. The sample was then spun at […] and 200 μL of the supernatant was transferred to a clean tube for determination. The reaction product 17-alpha pregnenolone was measured by LC/MS.

[4] = Metabolic stability evaluation in human liver microsomes; format: in vitro ADME; details: human liver microsome
Experimental: Experiments in microsomes: Human liver microsomes: 0.5 mg/mL, Xenotech; Coenzyme (NADPH/NADH): 1 mM, Sigma Life Science; Magnesium chloride: 5 mM, 100 mM phosphate buffer (pH 7.4).
Preparation of stock solution: Powder of the example compound was accurately weighed and dissolved in DMSO to 5 mM.
Preparation of phosphate buffer (100 mM, pH7.4): A pre-formulated 0.5M potassium dihydrogen phosphate (150 mL) was mixed with 0.5M dibasic potassium phosphate (700 mL). The pH of the mixture was adjusted to 7.4 with 0.5M dibasic potassium phosphate solution. The mixture was diluted 5-fold with ultrapure water before use, and magnesium chloride was added to obtain a phosphate buffer (100 mM) containing 100 mM potassium phosphate, 3.3 mM magnesium chloride, pH 7.4.
A NADPH regeneration system solution (containing 6.5 mM NADP, 16.5 mM G-6-P, 3 U/mL G-6-P D, 3.3 mM magnesium chloride) was prepared and placed on wet ice prior to use.
Preparation of stop solution: acetonitrile solution containing 50 ng/mL propranolol hydrochloride and 200 ng/mL tolbutamide (internal standard). 25057.5 μL of phosphate buffer (pH 7.4) was taken into a 50 mL centrifuge tube, to which 812.5 μL human liver microsomes were added, and mixed to obtain a liver microsome dilution solution with a protein concentration of 0.625 mg/mL. 25057.5 μL of phosphate buffer (pH 7.4) was taken into a 50 mL centrifuge tube, to which 812.5 μL SD rat liver microsomes were added, and mixed to obtain a liver microsome dilution solution with a protein concentration of 0.625 mg/mL.
Incubation of the samples: The stock solution of the respective compound was respectively diluted to 0.25 mM with an aqueous solution containing 70% acetonitrile, and used as a working solution, ready for use. 398 μL of the dilution solution of human liver microsomes or rat liver microsome were added to a 96-well incubation plate (N=2), respectively, and 2 μL of 0.25 mM working solution was added and mixed.
Metabolic stability assay: 300 μL of pre-chilled stop solution was added to each well of a 96-well deep well plate and placed on ice as a stop plate. The 96 well incubation plate and NADPH regeneration system were placed in a 37° C. water bath box, shaken at 100 rpm and pre-incubated for 5 min. 80 μL of incubation solution was taken out from each well of the incubation plate and added to the stop plate, mixed, and replenished with 20 μL of NADPH regeneration system solution as a 0-min sample. 80 μL of NADPH regeneration system solution was added to each well of the incubation plate to start the reaction and start counting. […] Separately, 100 μL of the reaction solution was taken at 10, 30, and 90 min reaction, respectively, added to a stop plate, and vortexed for 3 minutes to terminate the reaction. The stop plate was centrifuged at 5000×g at 4° C. for 4 min. 100 μL of the supernatant was added to a 96-well plate to which 100 μL of distilled water was previously added, mixed, and analyzed by LC-MS/MS.
Data analysis: The peak areas of the corresponding compound and internal standard were detected by LC-MS/MS system, and the ratio of the peak area of the compound to the internal standard was calculated.

[5] = human liver microsomes, pH 7.4, 1 μM compound, 0.5 mg/mL protein

Row | Compound | IC50 [1] | IC50 [2] | IC50 [3] | clearance compared to the non-deuterated compound ([4]; in words) | half-life compared to the non-deuterated compound ([4]; in words) | half-life at 1 μM [4, 5] | microsomal CLint at 1 μM [4, 5]
1 | [2H]c1cncc(C2=CCC3C4CCC5=CC(=O)CC[C@]5(C)C4CC[C@]23C)c1 (stereo partly drawn) [Example 11, (3β)-17-(3-pyridyl-5-d)androst-4,16-dien-3-one] | < 0.01 µM | < 0.01 µM | < 0.02 µM | – | – | – | –
2 | [2H]C1=C(c2cccnc2)[C@@]2(C)CCC3C(CCC4=CC(=O)CC[C@@]43C)C2C1 (stereo partly drawn) [Example 13, (3β)-17-(3-pyridyl)-16-d-androst-4,16-dien-3-one] | < 0.01 µM | < 0.01 µM | < 0.02 µM | – | – | – | –
3 | [2H]c1ccc(C2=CCC3C4CCC5=CC(=O)CC[C@]5(C)C4CC[C@]23C)cn1 (stereo partly drawn) [Example 12, (3β)-17-(3-pyridyl-6-d)androst-4,16-dien-3-one] | < 0.01 µM | < 0.01 µM | < 0.02 µM | reduced | prolonged | 3.4 min | 408 µL/min/mg
